From patent US20190169564A1, “METHODS OF CULTURING MICROORGANISMS IN NON-AXENIC MIXOTROPHIC CONDITIONS” (HELIAE DEVELOPMENT, LLC, priority 2012, published 2019) come the findings set out here.

In test [1] the test system is E. coli.
Protocol: 200 ml of bacteria inoculum from a bacteria contaminated photobioreactor was added to 200 ml of BG-11 culture medium. The solution was split in half, with the first solution receiving 6.84 g of glucose and the second solution receiving 5 g of sodium acetate. The pH and optical density of both solutions was taken. The two solutions were each split into three groups of three separate 100 ml volumes, for a control, 10 mMH2O2, and 20 mMH2O2 treatments. Each volume had 2.092 g of MOPS buffer (Sigma Chemical St. Louis, Mo.), and then placed in an incubator set at 27° C., 96 rpm, and 100 μmol/m^2 s of LED light. The volumes were incubated overnight, then brought to a pH of 7.5 using 10 M NaOH and optical density was measured. The treatments of 10 mM H2O2 and 20 mM H2O2 were then added and incubated for 24 h. Optical density and pH were then measured, and methionine was added to one volume of each treatment. Optical density and pH were measured again on the third day and the sixth day before microscope analysis on the sixth day.
The bacteria cultures in glucose and sodium acetate were treated with 0 mM H2O2 (control), 1 mM H2O2, 2.5 mM H2O2, and 5 mM H2O2.
Test [2] relates to Chlorella. The test is described as follows: Mixotrophic Chlorella culture in bubbled column reactor with pH-auxostat, comparison of organic carbon sources.
For test [3], the system named is contaminating bacteria. The test is described as follows: Treatment of bacterial contamination in outdoor raceway pond mixotrophic Chlorella culture (flow cytometry). Type of test: cell-based. How it is done: Contamination observation (400×, 1000× oil immersion-phase contrast micrograph and cell cytometry with bacterial dying) was performed every 2 days, including a measurement of bacterial contamination by flow cytometry. For bacterial contamination measurement, to each 1 ml sample, 1 μl BacLight™ Green bacterial stain (Invitrogen, Eugene, Oreg., USA) as added, and samples were incubated at room temperature in the dark for 30 to 60 minutes. After incubation, samples were analyzed on a BD FACSAria™ (BD Biosciences, San Jose, Calif., USA) and populations of bacteria and algae were gated based on BacLight™ fluorescence and chlorophyll autofluoresence.
Chlorella sp. SNL333 was grown in a mixotrophic system in the pond raceway systems described above in Example 4. The area of the raceway photobioreactor was 5.6 m^2 with an operating volume of 568 L at a depth of […]. One unit was mixed with a pump (Reactor 1), and the other via a paddle wheel (Reactor 2). Air was delivered to the paddle wheel system via an air stone. Air was delivered to the pumped reactor via a venturi injection system. […] The nitrate level in the modified BG-11 recipe consisted of 400 mg/L, and was determined via the nitrate consumption rates from previous trials. […]
Referring to FIG. 28, the percentage of bacteria to Chlorella in the mixotrophic cultures was quantified using the procedure discussed in the previous examples. […]

Test [4] concerns Chlorella sp. SNL333. The test is described as follows: Yield of raceway pond mixotrophic Chlorella culture after contamination treatment. It is filed as cell-based.
Protocol: Chlorella sp. SNL333 was grown in a mixotrophic system in the pond raceway systems described above in Example 4. The area of the raceway photobioreactor was 5.6 m^2 with an operating volume of 568 L at a depth of 15 cm. One unit was mixed with a pump (Reactor 1), and the other via a paddle wheel (Reactor 2). Air was delivered to the paddle wheel system via an air stone. Air was delivered to the pumped reactor via a venturi injection system. Eductors were used in the pumped reactor to increase water velocity and enhance oxygen transfer of the liquid medium. […] The nitrate level in the modified BG-11 recipe consisted of 400 mg/L, and was determined via the nitrate consumption rates from previous trials.
Nitrate levels were adjusted towards the end of the trial to maintain residual nitrate in the system (400 mg/L). Harvests occurred daily throughout the trials. Harvest consisted of 50% of the culture volume daily, with an 80% harvest occurring on day 7. The total trial lasted 12 days for Reactor 1 and 10 days for Reactor 2.
Treatments to control the bacterial population occurred at the time indicated by the vertical dashed line. Reactor 1 received an ozone treatment, and Reactor 2 received an antibiotic treatment. At 190 hours the make-up water for refilling the system was sterilized by chlorination prior to being added to the culture. […]

With `OO` [H2O2, hydrogen peroxide], in test [1] (10 mM and 20 mM H2O2, glucose and acetate mediums, 20 mM greater effect than 10 mM), the “effect on growth of bacteria cultures” value was “negatively affected the growth of bacteria cultures in both glucose and acetate mediums”. For the same molecule, the “inhibitory effect on growth of the bacteria versus H2O2 concentration” value in test [1] (1, 2.5 and 5 mM H2O2, one time treatment, glucose and sodium acetate cultures, growth eventually recovers) was “inhibitory effect on the growth of the bacteria increased”.

Regarding `CC(=O)O` [Acetic Acid, acetic acid], the “Mixotrophic Chlorella Daily Productivity” value in test [2] (Day 1, organic carbon source fed by pH-auxostat, 25° C., 24 hour photoperiod) is given as 1.04 g/L day; in test [2] (Day 2) it was 1.21 g/L day; in test [2] (Day 3), 1.27 g/L day; in test [2] (Day 4) it was 1.97 g/L day; in test [2] (Day 5) it was 1.40 g/L day.

Regarding `O=[O+][O-]` [ozone], in test [3] (after the treatment (ozone 0.10-0.20 mg/L for 17 h; antibiotic mix of Table 4)), the “percentage of bacteria to Chlorella after treatment” value came out at 1.4%. In test [3] (before the treatment), the “percentage of bacteria to Chlorella before treatment” value is 6.5%. Further, the “average yield for the three days after the treatment” value in test [4] is recorded as 105 g/m^2 d.
